Test results published in patent publication US12226386B2, “Compositions and methods for treating biofilms” (The Regents of the University of California, priority 2018, dated 2025).
Read-outs that look alike come from different tables or passages of the source.

System: S. aureus (MRSA) biofilms
Experiment: in vitro biofilm disruption assay, bacterial
Format: cell-based
Settings: Staphylococcus aureus, 24 h
Experimental: In vitro biofilm formation was tested using two assays, sustained inhibition and disruption. Both assays assess biofilm formed on polystyrene plates. The first, tests the effects of amino acid solution on a developing biofilm, while the latter tests the effects of the solution on a pre-formed mature biofilm, both compared to media without supplemented amino acids.
Other amino acids in the blood of animals could combat bacterial and fungal biofilm and therefore may be useful in treating these bacterial and fungal infections that would lie on the external surfaces of infected animals such as humans and could also be used to combat these pathogens on instruments and surfaces that need to be treated. Two types of biofilm assays were performed: a sustained inhibition assay and a disruption assay. The sustained inhibition assay assessed the compound's ability to prevent biofilm development throughout all stages of biofilm formation, while the disruption assay assessed the compound's ability to break up an existing mature biofilm.
For fungal biofilm assays, all solutions were prepared in RPMI 1640 medium. All bacterial biofilm solutions were prepared in Tryptic Soy Broth (TSB), supplemented with 1% glucose (henceforth referred to as TSB-G). All subsequent procedures were performed in a manner that maintained sterility. A solution of each amino acid to be tested was prepared in weight to volume concentrations ranging from 0.1-5.0%. Amino acids were also tested in combinations. Compound solutions were homogenized with gentle agitation in the dark (4° C., 24 hours) before use.
Bacterial strains were streaked on Blood Agar plates (5% sheep blood in Tryptic Soy Agar) and incubated at 37° C. for 24 hours. A single colony from each strain to be tested was inoculated in a TSB broth and grown for 12 hours, at 37° C. shaking at 225 rpm. For the bacterial biofilm inhibition assays, 1 μL of saturated overnight cell culture was added to either 80 μL of TSB-G, or TSB-G supplemented with the amino acid compound solution to be tested, in a 384-well plate. The cells were allowed to adhere to the plate for 60 minutes at 37° C. without shaking. The media was carefully aspirated and 80 μL of TSB-G, or TSB-G supplemented with the amino acid compound solution was added to the plate. The plate was further incubated for 24 hours at 37° C. without shaking. Media was carefully aspirated and the biofilm was measured by optical density at 600 nm. Eight or twelve replicates were performed for each tested condition and the reported values are normalized to the control (TSB-G media only). For the bacterial biofilm disruption assays, 80 μL of TSB-G was added to the plate, along with 1 μL of overnight cell culture. The cells were allowed to adhere to the plate for 60 minutes at 37° C. with no shaking. The media was carefully aspirated and 80 μL of TSB-G was added to the plate. The plate was further incubated for 24 hours at 37° C. with no shaking. Media was carefully aspirated from the mature biofilm and 80 μL of TSB-G, or TSB-G supplemented with the amino acid to be tested, was gently added to the plate. The plate was further incubated for 24 hours at 37° C. without shaking. Media was aspirated and the biofilm was measured by optical density at 600 nm. Twelve replicates were performed for each tested condition and the reported values are normalized to the control (TSB-G media only).
For disruption assay, 80 μl of TSB-G was added to the plate, along with 1 μl of overnight cell culture. The cells were allowed to adhere to the plate for 60 minutes at 37° C. with no shaking. The media was carefully aspirated and 80 μl of TSB-G was added to the plate. The plate was further incubated for 24 hours at 37° C. with no shaking. Media was carefully aspirated from the mature biofilm and 80 μl of TSB-G, or TSB-G supplemented with the amino acid to be tested, was added drop wise to the plate. The plate was further incubated for 24 hours at 37° C. with no shaking. […]

[1] = disruption, S. aureus, 1% amino acid, p<0.001, read-out: Reduce B Biofilm

SMILES | inhibition at 1 % [1] [%] | inhibition at 1 % (read-out: Reduce B Biofilm) [%]
N[C@@H](CC(=O)O)C(=O)O [Aspartic Acid, L-aspartic acid] | > 30 | 
N[C@@H](CS)C(=O)O [Cysteine, L-cysteine] | > 30 | 
N[C@@H](CCC(=O)O)C(=O)O [Glutamic Acid, L-glutamic acid] |  | > 30
